Reference: patent publication US9833497B2, “Human originated EGF domain proteins and use of the same” (CHENGDU SOURCEBIO LIMITED-LIABILITY COMPANY, priority 2013, dated 2017)

Experiments:
Assay type in all cases: cell-based
Proteus mirabilis = experiment: MIC against Gram-negative bacteria: Proteus mirabilis; settings: for MIC against P. mirabilis / MIC (μg/mL) P. mirabilis: 5×10^5 CFU/mL
Method in brief: (§1)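 Bacteria grown in LB at 37° C to McFarland 0.5, resuspended and seeded at 5×10^5 CFU/mL in 96-well plates. Purified human EGF-domain proteins two-fold serially diluted, triplicate wells; cultured at 37° C, shaking 175 rpm. MIC = lowest protein concentration with no growth.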

Enterobacter cloacae = experiment: MIC against Gram-negative bacteria: Enterobacter cloacae; settings: for MIC against E. cloacae / MIC (μg/mL) E. cloacae: 5×10^5 CFU/mL
Method in brief: as §1

E. coli DH5α = experiment: Antibacterial activity: MIC and growth curve against E. coli DH5α in 96-well plate; settings: minimal inhibitory concentration against E. coli DH5α; 96-well plate, 5×10^5 CFU/mL, 37° C., judged after 8 h
Method in brief: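 Log-phase DH5α (OD600 about 0.5, 37° C, 185 rpm in LB) was pelleted, resuspended in fresh LB and seeded at 5×10^5 CFU/mL with recombinant protein at 50, 25 and 12.5 μg/mL (two-fold series), in triplicate. Plates were shaken at 175 rpm, 37° C, and OD600 was read every 30 min. MIC was the lowest concentration with no growth.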

E. coli BL21 = experiment: MIC against Gram-negative bacteria: E. coli BL21; settings: for MIC against E. coli BL21 / MIC (μg/mL) E. coli BL21: 5×10^5 CFU/mL
Method in brief: as §1

Citrobacter diversus = experiment: MIC against Gram-negative bacteria: Citrobacter diversus; settings: for MIC against C. diversus / MIC (μg/mL) C. diversus: 5×10^5 CFU/mL
Method in brief: as §1

Proteus vulgaris = experiment: MIC against Gram-negative bacteria: Proteus vulgaris; settings: for MIC against P. vulgaris / MIC (μg/mL) P. vulgaris: 5×10^5 CFU/mL
Method in brief: as §1

Moraxella catarrhalis = experiment: MIC against Gram-negative bacteria: Moraxella catarrhalis; settings: for MIC against M. catarrhalis / MIC (μg/mL) M. catarrhalis: 5×10^5 CFU/mL
Method in brief: as §1

Aeromonas hydrophila = experiment: MIC against Gram-negative bacteria: Aeromonas hydrophila; settings: for MIC against A. hydrophila / MIC (μg/mL) A. hydrophila: 5×10^5 CFU/mL
Method in brief: as §1

Serratia marcescens = experiment: MIC against Gram-negative bacteria: Serratia marcescens; settings: for MIC against S. marcescens / MIC (μg/mL) S. marcescens: 5×10^5 CFU/mL
Method in brief: as §1

Klebsiella pneumonia = experiment: MIC against Gram-negative bacteria: Klebsiella pneumonia; settings: for MIC against K. pneumonia / MIC (μg/mL) K. pneumonia: 5×10^5 CFU/mL
Method in brief: as §1

Pseudomonas aeruginosa = experiment: MIC against Gram-negative bacteria: Pseudomonas aeruginosa; settings: for MIC against P. aeruginosa / MIC (μg/mL) P. aeruginosa: 5×10^5 CFU/mL
Method in brief: as §1

[1] = Proteus mirabilis, 96-well plate, 37° C., 10 h
[2] = Enterobacter cloacae, 96-well plate, 37° C., 10 h
[3] = E. coli BL21, 96-well plate, 37° C., 10 h
[4] = Citrobacter diversus, 96-well plate, 37° C., 10 h
[5] = Proteus vulgaris, 96-well plate, 37° C., 10 h
[6] = Moraxella catarrhalis, 96-well plate, 37° C., 10 h
[7] = Aeromonas hydrophila, 96-well plate, 37° C., 10 h
[8] = Serratia marcescens, 96-well plate, 37° C., 10 h
[9] = Klebsiella pneumonia, 96-well plate, 37° C., 10 h
[10] = Pseudomonas aeruginosa, 96-well plate, 37° C., 10 h
[11] = P. mirabilis, 10 h cultivation at 37° C.
[12] = E. cloacae, 10 h cultivation at 37° C.
[13] = E. coli BL21, 10 h cultivation at 37° C.
[14] = C. diversus, 10 h cultivation at 37° C.
[15] = P. vulgaris, 10 h cultivation at 37° C.
[16] = M. catarrhalis, 10 h cultivation at 37° C.
[17] = A. hydrophila, 10 h cultivation at 37° C.
[18] = S. marcescens, 10 h cultivation at 37° C.
[19] = K. pneumonia, 10 h cultivation at 37° C.
[20] = P. aeruginosa, 10 h cultivation at 37° C.

| Substance | MIC (E. coli DH5α) [µg/mL] | MIC (Proteus mirabilis; [11]) [µg/mL] | MIC (Enterobacter cloacae; [12]) [µg/mL] | MIC (E. coli BL21; [13]) [µg/mL] | MIC (Citrobacter diversus; [14]) [µg/mL] | MIC (Proteus vulgaris; [15]) [µg/mL] | MIC (Moraxella catarrhalis; [16]) [µg/mL] | MIC (Aeromonas hydrophila; [17]) [µg/mL] | MIC (Serratia marcescens; [18]) [µg/mL] | MIC (Klebsiella pneumonia; [19]) [µg/mL] | MIC (Pseudomonas aeruginosa; [20]) [µg/mL] | also measured |
| --- | --- | --- | --- | --- | --- | --- | --- | --- | --- | --- | --- | --- |
| PRT1222 (SVNYCECNPCFNGGSCQSGVDSYYCHCPFGVFGKHCE; listed as Homo sapiens) | 12.5 | – | – | – | – | – | – | – | – | – | – | MIC against P. mirabilis (Proteus mirabilis; [1]): 50 µg/mL; MIC against E. cloacae (Enterobacter cloacae; [2]): 25 µg/mL; MIC against E. coli BL21 (E. coli BL21; [3]): 25 µg/mL; MIC against C. diversus (Citrobacter diversus; [4]): 12.5 µg/mL; MIC against P. vulgaris (Proteus vulgaris; [5]): 25 µg/mL; MIC against M. catarrhalis (Moraxella catarrhalis; [6]): 25 µg/mL; MIC against A. hydrophila (Aeromonas hydrophila; [7]): 50 µg/mL; MIC against S. marcescens (Serratia marcescens; [8]): 12.5 µg/mL; MIC against K. pneumonia (Klebsiella pneumonia; [9]): 12.5 µg/mL; MIC against P. aeruginosa (Pseudomonas aeruginosa; [10]): 50 µg/mL |
| PRT1498 (PESPCLQNPCQNDGQCREQGATFTCECEVGYGGGLCM; listed as Homo sapiens) | 50 | – | – | – | – | – | – | – | – | – | – | MIC (μg/mL) P. mirabilis (Proteus mirabilis; [1]): 50 µg/mL; MIC (μg/mL) E. cloacae (Enterobacter cloacae; [2]): 50 µg/mL; MIC (μg/mL) E. coli BL21 (E. coli BL21; [3]): 25 µg/mL; MIC (μg/mL) C. diversus (Citrobacter diversus; [4]): 50 µg/mL; MIC (μg/mL) P. vulgaris (Proteus vulgaris; [5]): 12.5 µg/mL; MIC (μg/mL) M. catarrhalis (Moraxella catarrhalis; [6]): 12.5 µg/mL; MIC (μg/mL) A. hydrophila (Aeromonas hydrophila; [7]): 12.5 µg/mL; MIC (μg/mL) S. marcescens (Serratia marcescens; [8]): 12.5 µg/mL; MIC (μg/mL) K. pneumonia (Klebsiella pneumonia; [9]): 12.5 µg/mL; MIC (μg/mL) P. aeruginosa (Pseudomonas aeruginosa; [10]): 12.5 µg/mL |
| PRT1025 (GHNYCSVNNGGCTHLCLATPGSRTCRCPDNTLGVDCI; listed as Homo sapiens) | 50 | 12.5 | 50 | 25 | 50 | 25 | 25 | 100 | 50 | 25 | 12.5 | – |
| PRT1333 (PIPECAALLCPENSRCSPSTEDENKLECKCLPNYRGDGKYCD; listed as Homo sapiens) | 25 | – | – | – | – | – | – | – | – | – | – | MIC against P. mirabilis (Proteus mirabilis; [1]): 12.5 µg/mL; MIC against E. cloacae (Enterobacter cloacae; [2]): 12.5 µg/mL; MIC against E. coli BL21 (E. coli BL21; [3]): 12.5 µg/mL; MIC against C. diversus (Citrobacter diversus; [4]): 12.5 µg/mL; MIC against P. vulgaris (Proteus vulgaris; [5]): 25 µg/mL; MIC against M. catarrhalis (Moraxella catarrhalis; [6]): 25 µg/mL; MIC against A. hydrophila (Aeromonas hydrophila; [7]): 25 µg/mL; MIC against S. marcescens (Serratia marcescens; [8]): 12.5 µg/mL; MIC against K. pneumonia (Klebsiella pneumonia; [9]): 25 µg/mL; MIC against P. aeruginosa (Pseudomonas aeruginosa; [10]): 25 µg/mL |
| PRT1024 (DVDECQPSRCHPDAFCYNTPGSFTCQCKPGYQGDGFRCV; listed as Homo sapiens) | 50 | 12.5 | 12.5 | 12.5 | 50 | 50 | 25 | 25 | 12.5 | 25 | 50 | – |
| PRT1009 (DVDECLDQPCHPTGTAACHSLANAFYCQCLPGHTGQWCE; listed as Homo sapiens) | 25 | 50 | 50 | 12.5 | 12.5 | 25 | 25 | 25 | 100 | 12.5 | 50 | – |
| PRT961 (DVDECASTPCRNGAKCVDQPDGYECRCAEGFEGTLCD; listed as Homo sapiens) | 12.5 | 50 | 12.5 | 25 | 25 | 12.5 | 25 | 12.5 | 25 | 25 | 100 | – |
| PRT753 (RKDVCKSTHHGCEHICVNNGNSYICKCSEGFVLAEDGRRCK; listed as Homo sapiens) | 25 | – | – | – | – | – | – | – | – | – | – | MIC (μg/mL) P. mirabilis (Proteus mirabilis; [11]): 12.5 µg/mL; MIC (μg/mL) E. cloacae (Enterobacter cloacae; [12]): 12.5 µg/mL; MIC (μg/mL) E. coli BL21 (E. coli BL21; [13]): 50 µg/mL; MIC (μg/mL) C. diversus (Citrobacter diversus; [14]): 12.5 µg/mL; MIC (μg/mL) P. vulgaris (Proteus vulgaris; [15]): 25 µg/mL; MIC (μg/mL) M. catarrhalis (Moraxella catarrhalis; [16]): 50 µg/mL; MIC (μg/mL) A. hydrophila (Aeromonas hydrophila; [17]): 50 µg/mL; MIC (μg/mL) S. marcescens (Serratia marcescens; [18]): 50 µg/mL; MIC (μg/mL) K. pneumonia (Klebsiella pneumonia; [19]): 50 µg/mL; MIC (μg/mL) P. aeruginosa (Pseudomonas aeruginosa; [20]): 12.5 µg/mL |
| PRT476 (VVPVCRPNPCQNGATCSRHKRRSKFTCACPDQFKGKFCE; listed as Homo sapiens) | 12.5 | – | – | – | – | – | – | – | – | – | – | MIC against P. mirabilis (Proteus mirabilis; 96-well plate, 37° C., 10 h): 25 µg/mL; MIC against E. cloacae (Enterobacter cloacae; 96-well plate, 37° C., 10 h): 50 µg/mL; MIC against E. coli BL21 (E. coli BL21; 96-well plate, 37° C., 10 h): 12.5 µg/mL; MIC against C. diversus (Citrobacter diversus; 96-well plate, 37° C., 10 h): 50 µg/mL; MIC against P. vulgaris (Proteus vulgaris; 96-well plate, 37° C., 10 h): 12.5 µg/mL; MIC against M. catarrhalis (Moraxella catarrhalis; 96-well plate, 37° C., 10 h): 25 µg/mL; MIC against A. hydrophila (Aeromonas hydrophila; 96-well plate, 37° C., 10 h): 12.5 µg/mL; MIC against S. marcescens (Serratia marcescens; 96-well plate, 37° C., 10 h): 50 µg/mL; MIC against K. pneumonia (Klebsiella pneumonia; 96-well plate, 37° C., 10 h): 12.5 µg/mL; MIC against P. aeruginosa (Pseudomonas aeruginosa; 96-well plate, 37° C., 10 h): 50 µg/mL |
| PRT913 (VINGCKGKPCKNGGTCAVASNTARGFICKCPAGFEGATCE; listed as Homo sapiens) | 12.5 | 25 | 12.5 | 25 | 25 | 12.5 | 50 | 25 | 50 | 25 | 50 | – |
| PRT745 (RQHPCAQDNGGCSHICLVKGDGTTRCSCPMHLVLLQDELSCG; listed as Homo sapiens) | 50 | – | – | – | – | – | – | – | – | – | – | MIC (μg/mL) P. mirabilis (Proteus mirabilis; [11]): 25 µg/mL; MIC (μg/mL) E. cloacae (Enterobacter cloacae; [12]): 50 µg/mL; MIC (μg/mL) E. coli BL21 (E. coli BL21; [13]): 25 µg/mL; MIC (μg/mL) C. diversus (Citrobacter diversus; [14]): 50 µg/mL; MIC (μg/mL) P. vulgaris (Proteus vulgaris; [15]): 50 µg/mL; MIC (μg/mL) M. catarrhalis (Moraxella catarrhalis; [16]): 12.5 µg/mL; MIC (μg/mL) A. hydrophila (Aeromonas hydrophila; [17]): 12.5 µg/mL; MIC (μg/mL) S. marcescens (Serratia marcescens; [18]): 25 µg/mL; MIC (μg/mL) K. pneumonia (Klebsiella pneumonia; [19]): 12.5 µg/mL; MIC (μg/mL) P. aeruginosa (Pseudomonas aeruginosa; [20]): 50 µg/mL |
